Experimental data: patent US20260083864A1, “CONTRAST AGENTS FOR USE IN DIAGNOSTIC COMPUTED TOMOGRAPHY IMAGING” (Bayer Aktiengesellschaft, priority 2022, published 2026)

How the values were obtained:
[1] = biological target: T1, OATP1B1 (Homo sapiens, UniProt Q9Y6L6); assay: Uptake into stable transfected OATP1B1 HEK 293 cells; format: cell-based; conditions: for Uptake into OATP1B1-HEK 293 cells: 40 min incubation, relative to RC1 (Gd-EOB-DTPA); for Inhibition Rifampicine: uptake into OATP1B1-HEK 293 cells
T1 sequence (Q9Y6L6 1-691): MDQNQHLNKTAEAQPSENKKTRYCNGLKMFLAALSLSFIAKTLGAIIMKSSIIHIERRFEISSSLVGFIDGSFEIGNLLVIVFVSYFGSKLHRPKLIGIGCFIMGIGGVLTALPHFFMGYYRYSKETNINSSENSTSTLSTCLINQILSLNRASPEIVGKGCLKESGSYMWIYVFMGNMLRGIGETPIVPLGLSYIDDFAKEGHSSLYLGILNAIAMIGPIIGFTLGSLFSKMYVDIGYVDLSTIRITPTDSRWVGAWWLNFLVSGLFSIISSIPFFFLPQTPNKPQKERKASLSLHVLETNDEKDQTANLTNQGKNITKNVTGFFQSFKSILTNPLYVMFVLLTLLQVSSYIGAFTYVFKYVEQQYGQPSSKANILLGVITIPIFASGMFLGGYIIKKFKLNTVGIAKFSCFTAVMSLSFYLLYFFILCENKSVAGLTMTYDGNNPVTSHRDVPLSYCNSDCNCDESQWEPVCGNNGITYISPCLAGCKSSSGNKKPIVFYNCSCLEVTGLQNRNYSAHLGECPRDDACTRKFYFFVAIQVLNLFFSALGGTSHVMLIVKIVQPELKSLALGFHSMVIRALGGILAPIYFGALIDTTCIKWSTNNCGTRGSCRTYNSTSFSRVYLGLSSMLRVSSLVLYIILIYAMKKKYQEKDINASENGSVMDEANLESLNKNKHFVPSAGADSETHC
Summary of the method: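 Stably transfected OATP1B1 HEK293 cells incubated 40 min without shaking with test item at 100 µM final in transport buffer, in triplicate. Cells then washed with cold PBS; gadoxetate run on the same plate as reference.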

[2] = test system: plasma proteins; assay: Plasma protein binding, equilibrium dialysis, human; format: in vitro ADME
Excerpt: The binding of Example 1 and 15 to plasma proteins of different species (human, dog, monkey, rabbit, mouse and rat) was investigated in vitro by using equilibrium dialysis in reusable 96-well Micro-Equilibrium Dialysis Devices (ht dialysis) (Banker M J et al. J Pharm Sci. 2003 May; 92 (5): 967-74).

[3] = Excretion study in rats (5 days) and residual gadolinium organ distribution (7 days); format: in vivo, rat; conditions: 0.1 mmol Gd/kg bw i.v.; for Σ organs and carcass [% Dose]: 7 d post injection
Description: The excretion and organ distribution of Example 1 and 15 were determined in male rats (Han-Wistar, n=3). The compound was administered as a sterile aqueous solution (50 mmol Gd/L) as a bolus in the tail vein of the animals. The dose was 0.1 mmol Gd/kg bw. Urine was collected in the following time periods 0-1 h, 1-3 h, 3-6 h, 6-24 h, 1-2d and 2-5d post injection […] and feces 0-1d, 1-2d and 2-5d post injection. As a control, 3 animals were treated in the same way with RC1. On day 7 the animals were sacrificed, and the following organs were excised: blood, liver, kidney, spleen, heart, lung, brain, muscle, skin, stomach, gut, bone and bone marrow. The remaining carcass was freeze dried and ground to a fine powder. The Gd concentration in the organs and the carcass was determined by ICP-MS (ICP-MS Agilent 7500a, Waldbronn, Germany). The compounds are excreted via dual pathway (liver and kidney). Less than 1% of the administered dose was present in the body 7 days after the injection.

[4] = test system: cryopreserved human hepatocytes; assay: In vitro metabolism in cryopreserved human hepatocytes; format: in vitro ADME; conditions: 5 μM, incubation time of 4 h, LC-MS
Description: (§1) The in vitro metabolism was investigated in cryopreserved human and rat hepatocytes (Li A P et al. Biomark Med. 2014; 8 (2): 173-83). Cryopreserved human (WSS) and rat hepatocytes (Wistar rat, RWH137, male) were incubated with the test compound (incubation concentration: 5 μM). The amount of remaining compound was related to the initial amount (0 mins). The cells were removed from the liquid nitrogen. The vial was immersed in the 37° C. water bath and shaken gently (by hand) until most of the ice was melted (approx. 90 sec.). The cell suspensions were transferred e.g. into a 50 ml-centrifuge tube and 12 ml of 4° C.-cold buffer (e.g. Krebs-Henseleit or Williams Medium E) were added. The cell suspension was centrifuged at 50×g for 5 mins. The buffer was aspirated, and the cells resuspended in 5 ml of fresh warm buffer. An aliquot of 50 μl was mixed with 200 μl trypan blue to determine the cell density and cell viability. The cell suspension was adjusted to a final concentration of 0.8 Mio hepatocytes per mL. The incubations were performed in 96 well plates (1.2 ml volume, negative control without cells). The 0 min samples were stopped immediately by adding 250 μl of ice-cold methanol. All other samples are shaken on an Heidolph®-rotor during incubation in a 37° C. incubator for the indicated period of 4 hours. Aliquots of the samples were used for analysis. All samples were analyzed using LC-MS at 0 h, 1 h, 2 h and 4 h (exemplary LC-MS: Accucore C-18 column, 30° C., 0.35 mL/min flow rate, solvent A: 10 mM Ammonium formate+5% MeCN, pH4 and solvent B: MeCN+0.1% formic acid; […] injection volume, gradient: 90% A, 10% B, 5 min 70% A and 30% B, 8 min 0% A and 100% B).

[5] = test system: cryopreserved rat hepatocytes; assay: In vitro metabolism in cryopreserved rat hepatocytes; format: in vitro ADME; conditions: 5 μM, incubation time of 4 h, LC-MS
Description: as §1

## CCOc1ccc(CCOCC(C(=O)O)N2CCN(CC(=O)[O-])CCN(CC(=O)[O-])CCN(CC(=O)[O-])CC2)cc1.[Gd+3] (stereo not shown) [Example 1, gadolinium 2,2′,2″-(10-{1-carboxy-2-[2-(4-ethoxyphenyl)ethoxy]ethyl}-1,4,7,10-tetraazacyclododecane-1,4,7-triyl)triacetate]
[1]
  Uptake into OATP1B1-HEK 293 cells: 187 % of RC1
  Inhibition Rifampicine: 92 % inhibition
[2]
  Fraction unbound fu: 99%
[3]
  Total recovery [% Dose]: 98.6 ± 2.1%
  Σ organs and carcass [% Dose]: 0.65 ± 0.07%
[3]; 0-1 h post injection
  Excretion in urine [% Dose]: 39.8 ± 6.8%
[3]; 0-1 d post injection
  Excretion in feces [% Dose]: 55.6 ± 5.6%
[3]; 1-3 h post injection
  Excretion in urine [% Dose]: 40.3 ± 6.8%
[3]; 1-2 d post injection
  Excretion in feces [% Dose]: 56.9 ± 6.6%
  Excretion in urine [% Dose]: 40.9 ± 7.4%
[3]; 2-5 d post injection
  Excretion in feces [% Dose]: 57.0 ± 6.6%
  Excretion in urine [% Dose]: 40.9 ± 7.4%
[3]; 3-6 h post injection
  Excretion in urine [% Dose]: 40.3 ± 6.8%
[3]; 6-24 h post injection
  Excretion in urine [% Dose]: 40.8 ± 7.4%
[4]
  Metabolites detected: No metabolites were detected
[5]
  Metabolites detected: No metabolites were detected

## CCOCCOCCOc1ccc(CC(C(=O)O)N2CCN(CC(=O)[O-])CCN(CC(=O)[O-])CCN(CC(=O)[O-])CC2)cc1.[Gd+3] (stereo not shown) [Example 2, gadolinium 2,2′,2″-{10-[1-carboxy-2-{4-[2-(2-ethoxyethoxy)ethoxy]phenyl}ethyl]-1,4,7,10-tetraazacyclododecane-1,4,7-triyl}triacetate]
[1]
  Uptake into OATP1B1-HEK 293 cells: 324 % of RC1
  Inhibition Rifampicine: 45 % inhibition
[2]
  Fraction unbound fu: >95%
[4]
  Metabolites detected: No metabolites were detected
[5]
  Metabolites detected: No metabolites were detected

## CCOCCOCCOc1ccc(CCC[C@@H](C(=O)O)N2CCN([C@@H](CO)C(=O)[O-])CCN([C@@H](CO)C(=O)[O-])CCN([C@@H](CO)C(=O)[O-])CC2)cc1.[Gd+3] [Example 15, gadolinium (2S,2′S,2″S)-2,2′,2″-{10-[(1S)-1-carboxy-4-{4-[2-(2-ethoxyethoxy)ethoxy]phenyl}butyl]-1,4,7,10-tetraazacyclododecane-1,4,7-triyl}tris(3-hydroxypropanoate)]
[1]
  Inhibition Rifampicine: 91 % inhibition
[2]
  Fraction unbound fu: 86%
[3]
  Total recovery [% Dose]: 97.9 ± 5.4%
  Σ organs and carcass [% Dose]: 0.11 ± 0.03%
[3]; 0-1 h post injection
  Excretion in urine [% Dose]: 12.6 ± 11.1%
[3]; 0-1 d post injection
  Excretion in feces [% Dose]: 78.6 ± 6.2%
[3]; 1-3 h post injection
  Excretion in urine [% Dose]: 17.3 ± 3.4%
[3]; 1-2 d post injection
  Excretion in feces [% Dose]: 80.0 ± 5.3%
  Excretion in urine [% Dose]: 17.7 ± 3.3%
[3]; 2-5 d post injection
  Excretion in feces [% Dose]: 80.0 ± 5.3%
  Excretion in urine [% Dose]: 17.7 ± 3.3%
[3]; 3-6 h post injection
  Excretion in urine [% Dose]: 17.4 ± 3.3%
[3]; 6-24 h post injection
  Excretion in urine [% Dose]: 17.6 ± 3.3%
[4]
  Metabolites detected: No metabolites were detected
[5]
  Metabolites detected: No metabolites were detected

## CCOc1ccc(CC(CN(CCN(CC(=O)[O-])CC(=O)[O-])CC(=O)[O-])N(CC(=O)[O-])CC(=O)[O-])cc1.[Gd+3].[Na+].[Na+] (stereo not shown) [RC1, gadoxetate disodium, reference compound]
[1]
  Uptake into OATP1B1-HEK 293 cells: 100 % of RC1
  Inhibition Rifampicine: 81 % inhibition
[3]
  Total recovery [% Dose]: 104.6 ± 2.4%
  Σ organs and carcass [% Dose]: 0.14 ± 0.08%
[3]; 0-1 h post injection
  Excretion in urine [% Dose]: 23.2 ± 1.6%
[3]; 0-1 d post injection
  Excretion in feces [% Dose]: 77.5 ± 2.7%
[3]; 1-3 h post injection
  Excretion in urine [% Dose]: 23.5 ± 1.5%
[3]; 1-2 d post injection
  Excretion in feces [% Dose]: 80.6 ± 2.9%
  Excretion in urine [% Dose]: 23.7 ± 1.5%
[3]; 2-5 d post injection
  Excretion in feces [% Dose]: 80.8 ± 2.9%
  Excretion in urine [% Dose]: 23.7 ± 1.5%
[3]; 3-6 h post injection
  Excretion in urine [% Dose]: 23.6 ± 1.5%
[3]; 6-24 h post injection
  Excretion in urine [% Dose]: 23.7 ± 1.5%
